# Results: ChEMBL document CHEMBL5257025, “Artemisinin-Derived Dimers: Potent Antimalarial and Anticancer Agents” (J Med Chem, 2016)
# What was measured:
# Plasmodium falciparum [1] = assay: Antimalarial activity against Plasmodium falciparum NF54 assessed as reduction in cell growth; assay type: functional, organism-based
# Plasmodium falciparum [2] = assay: Antimalarial activity against Plasmodium falciparum K1 assessed as inhibition of malarial growth; assay type: functional, organism-based
# A549 = assay: cells; details: Homo sapiens, A549, 48 h
# MDA-MB-231 = assay: Antiproliferative activity against human MDA-MB-231 cells assessed as reduction in cell viability measured after 48 hrs by MTT assay; assay type: functional, cell-based; details: MDA-MB-231, 48 h
# HT-29 = assay: cells; details: Homo sapiens, HT-29, 72 h
# KB = assay: Antiproliferative activity against human KB cells assessed as reduction in cell viability incubated for 48 hrs by MTT assay; assay type: functional, cell-based
# [3] = Cytotoxicity against African green monkey Vero cells; assay type: toxicity, cell-based; details: chlorocebus sabaeus, read-out: TC50 (the source's name)
# Plasmodium falciparum [4] = assay: Antiplasmodial activity against Plasmodium falciparum NF54 assessed as reduction in malarial growth; assay type: functional, organism-based
structure (smiles),measurement,setting,value
C[C@@H]1CC[C@H]2[C@@H](C)C(CC3(CC4O[C@H]5O[C@@]6(C)CC[C@H]7[C@H](C)CC[C@@H]([C@H]4C)[C@@]57OO6)CO3)O[C@H]3O[C@@]4(C)CC[C@@H]1[C@]32OO4 (stereo not given in full),IC50,Plasmodium falciparum [1],2.8 nM
C[C@@H]1CC[C@H]2[C@@H](C)C(CCOCc3ccc(COCCC4O[C@H]5O[C@@]6(C)CC[C@H]7[C@H](C)CC[C@@H]([C@H]4C)[C@@]57OO6)cc3)O[C@H]3O[C@@]4(C)CC[C@@H]1[C@]32OO4 (stereo not given in full),IC50,Plasmodium falciparum [2],2.4 nM
C[C@@H]1CC[C@H]2[C@@H](C)C(OCCN/C(=N/c3cccc(Cl)c3)NCCOC3O[C@@H]4O[C@]5(C)CC[C@@H]6[C@@H](C)CC[C@H]([C@@H]3C)[C@]46OO5)O[C@H]3O[C@@]4(C)CC[C@@H]1[C@]32OO4 (stereo not given in full),IC50,A549,720 nM
same,IC50,MDA-MB-231,1170 nM
same,IC50,HT-29,100 nM
C[C@@H]1CC[C@H]2[C@@H](C)C(OC/C=C\COC3O[C@H]4O[C@@]5(C)CC[C@H]6[C@H](C)CC[C@@H]([C@H]3C)[C@@]46OO5)O[C@H]3O[C@@]4(C)CC[C@@H]1[C@]32OO4 (stereo not given in full),IC50,KB,320 nM
C[C@@H]1CC[C@H]2[C@@H](C)C(CC(COC(=O)c3cc(=O)oc4cc(N(C)C)ccc34)CC3O[C@H]4O[C@@]5(C)CC[C@H]6[C@H](C)CC[C@@H]([C@H]3C)[C@@]46OO5)O[C@H]3O[C@@]4(C)CC[C@@H]1[C@]32OO4 (stereo not given in full),IC50,Plasmodium falciparum [1],2.4 nM
C[C@@H]1CC[C@H]2[C@@H](C)C(OCCN/C(=N/c3cccc(Br)c3)NCCOC3O[C@@H]4O[C@]5(C)CC[C@@H]6[C@@H](C)CC[C@H]([C@@H]3C)[C@]46OO5)O[C@H]3O[C@@]4(C)CC[C@@H]1[C@]32OO4 (stereo not given in full),IC50,A549,360 nM
same,IC50,MDA-MB-231,1570 nM
same,IC50,HT-29,400 nM
CCCCCC[C@@]1(C[C@@H]2C(=O)O[C@H]3O[C@@]4(C)CC[C@H]5[C@H](C)CC[C@@H]2[C@@]35OO4)O[C@H]2O[C@@]3(C)CC[C@H]4[C@H](C)CC[C@@H]([C@H]1C)[C@@]24OO3,IC50,KB,4000 nM
same,CC50,[3],2500 nM
C[C@@H]1CC[C@H]2[C@@H](C)C(OCCN/C(=N/c3ccc(Cl)cc3Cl)NCCOC3O[C@@H]4O[C@]5(C)CC[C@@H]6[C@@H](C)CC[C@H]([C@@H]3C)[C@]46OO5)O[C@H]3O[C@@]4(C)CC[C@@H]1[C@]32OO4 (stereo not given in full),IC50,A549,640 nM
same,IC50,MDA-MB-231,2080 nM
same,IC50,HT-29,50 nM
C[C@@H]1CC[C@H]2[C@@H](C)C(/C=C/c3cccc(/C=C/C4O[C@@H]5O[C@]6(C)CC[C@@H]7[C@@H](C)CC[C@H]([C@@H]4C)[C@]57OO6)c3)O[C@H]3O[C@@]4(C)CC[C@@H]1[C@]32OO4 (stereo not given in full),IC50,Plasmodium falciparum [4],77 nM
C[C@@H]1CC[C@H]2[C@@H](C)C(OCCN/C(=N/c3ccc(Cl)cc3)NCCOC3O[C@@H]4O[C@]5(C)CC[C@@H]6[C@@H](C)CC[C@H]([C@@H]3C)[C@]46OO5)O[C@H]3O[C@@]4(C)CC[C@@H]1[C@]32OO4 (stereo not given in full),IC50,A549,980 nM
same,IC50,MDA-MB-231,1260 nM
same,IC50,HT-29,100 nM
C[C@@H]1CC[C@H]2[C@@H](C)C(CC(COC(=O)c3ccncc3)CC3O[C@H]4O[C@@]5(C)CC[C@H]6[C@H](C)CC[C@@H]([C@H]3C)[C@@]46OO5)O[C@H]3O[C@@]4(C)CC[C@@H]1[C@]32OO4 (stereo not given in full),IC50,Plasmodium falciparum [1],1.7 nM
C[C@@H]1CC[C@H]2[C@@H](C)C(CC(O)(CCS(=O)(=O)c3ccc(C(=O)O)cc3)CC3O[C@H]4O[C@@]5(C)CC[C@H]6[C@H](C)CC[C@@H]([C@H]3C)[C@@]46OO5)O[C@H]3O[C@@]4(C)CC[C@@H]1[C@]32OO4 (stereo not given in full),IC50,Plasmodium falciparum [1],2.4 nM
C[C@@H]1CC[C@H]2[C@@H](C)C(CC(=O)CC3O[C@H]4O[C@@]5(C)CC[C@H]6[C@H](C)CC[C@@H]([C@H]3C)[C@@]46OO5)O[C@H]3O[C@@]4(C)CC[C@@H]1[C@]32OO4 (stereo not given in full),IC50,Plasmodium falciparum [1],0.91 nM
CCCC[C@@]1(C[C@@H]2C(=O)O[C@H]3O[C@@]4(C)CC[C@H]5[C@H](C)CC[C@@H]2[C@@]35OO4)O[C@H]2O[C@@]3(C)CC[C@H]4[C@H](C)CC[C@@H]([C@H]1C)[C@@]24OO3,CC50,[3],> 130000 nM
COc1cc(OC)c(C2O[C@H]3O[C@@]4(C)CC[C@H]5[C@H](C)CC[C@@H]([C@H]2C)[C@@]35OO4)cc1C1O[C@H]2O[C@@]3(C)CC[C@H]4[C@H](C)CC[C@@H]([C@H]1C)[C@@]24OO3 (stereo not given in full),IC50,Plasmodium falciparum [4],1.3 nM
C[C@@H]1CC[C@H]2[C@@H](C)C(CC(=O)c3cccc(C(=O)CC4O[C@H]5O[C@@]6(C)CC[C@H]7[C@H](C)CC[C@@H]([C@H]4C)[C@@]57OO6)c3)O[C@H]3O[C@@]4(C)CC[C@@H]1[C@]32OO4 (stereo in doubt),IC50,Plasmodium falciparum [4],1.9 nM
C[C@@H]1CC[C@H]2[C@@H](C)C(CC(O)(COC(=O)CCC(=O)O)CC3O[C@H]4O[C@@]5(C)CC[C@H]6[C@H](C)CC[C@@H]([C@H]3C)[C@@]46OO5)O[C@H]3O[C@@]4(C)CC[C@@H]1[C@]32OO4 (stereo not given in full),IC50,Plasmodium falciparum [1],3 nM
C[C@@H]1CC[C@H]2[C@@H](C)C(/C=C\c3cccc(/C=C/C4O[C@H]5O[C@@]6(C)CC[C@H]7[C@H](C)CC[C@@H]([C@H]4C)[C@@]57OO6)c3)O[C@H]3O[C@@]4(C)CC[C@@H]1[C@]32OO4 (stereo not given in full),IC50,Plasmodium falciparum [4],35 nM
C[C@@H]1CC[C@H]2[C@@H](C)C(CC#Cc3cccc(C#CCC4O[C@H]5O[C@@]6(C)CC[C@H]7[C@H](C)CC[C@@H]([C@H]4C)[C@@]57OO6)c3)O[C@H]3O[C@@]4(C)CC[C@@H]1[C@]32OO4 (stereo not given in full),IC50,Plasmodium falciparum [4],36 nM
C[C@@H]1CC[C@H]2[C@@H](C)C(OCCN/C(=N/c3ccc(C(F)(F)F)cc3)NCCOC3O[C@@H]4O[C@]5(C)CC[C@@H]6[C@@H](C)CC[C@H]([C@@H]3C)[C@]46OO5)O[C@H]3O[C@@]4(C)CC[C@@H]1[C@]32OO4 (stereo not given in full),IC50,A549,680 nM
same,IC50,MDA-MB-231,1180 nM
same,IC50,HT-29,60 nM
C[C@@H]1CC[C@H]2[C@@H](C)C(CC(O)(CC3O[C@@H]4O[C@]5(C)CC[C@@H]6[C@@H](C)CC[C@H]([C@@H]3C)[C@]46OO5)c3ccc(C(=O)O)cc3)O[C@H]3O[C@@]4(C)CC[C@@H]1[C@]32OO4 (stereo not given in full),IC50,Plasmodium falciparum [1],2.1 nM
C[C@@H]1CC[C@H]2[C@@H](C)C(OCCN/C(=N/c3ccc(OC(F)(F)F)cc3)NCCOC3O[C@@H]4O[C@]5(C)CC[C@@H]6[C@@H](C)CC[C@H]([C@@H]3C)[C@]46OO5)O[C@H]3O[C@@]4(C)CC[C@@H]1[C@]32OO4 (stereo not given in full),IC50,A549,170 nM
same,IC50,HT-29,240 nM
C[C@@H]1CC[C@H]2[C@@H](C)C(/C=C\c3ccc(/C=C\C4O[C@H]5O[C@@]6(C)CC[C@H]7[C@H](C)CC[C@@H]([C@H]4C)[C@@]57OO6)cc3)O[C@H]3O[C@@]4(C)CC[C@@H]1[C@]32OO4 (stereo not given in full),IC50,Plasmodium falciparum [4],18 nM
C[C@H]1[C@H](CC(=O)c2ccc(C(=O)CC[C@H]3O[C@H]4O[C@@]5(C)CC[C@H]6[C@H](C)CC[C@@H]([C@H]3C)[C@@]46OO5)cc2)O[C@H]2O[C@@]3(C)CC[C@H]4[C@H](C)CC[C@@H]1[C@@]24OO3,IC50,Plasmodium falciparum [1],3.9 nM
same,IC50,Plasmodium falciparum [4],1.7 nM
C[C@@H]1CC[C@H]2[C@@H](C)C(OCCN/C(=N/c3cc(C(F)(F)F)ccc3F)NCCOC3O[C@@H]4O[C@]5(C)CC[C@@H]6[C@@H](C)CC[C@H]([C@@H]3C)[C@]46OO5)O[C@H]3O[C@@]4(C)CC[C@@H]1[C@]32OO4 (stereo not given in full),IC50,A549,240 nM
same,IC50,MDA-MB-231,1420 nM
same,IC50,HT-29,20 nM
CCC[C@@]1(C[C@@H]2C(=O)O[C@H]3O[C@@]4(C)CC[C@H]5[C@H](C)CC[C@@H]2[C@@]35OO4)O[C@H]2O[C@@]3(C)CC[C@H]4[C@H](C)CC[C@@H]([C@H]1C)[C@@]24OO3,CC50,[3],> 130000 nM
C[C@@H]1CC[C@H]2[C@@H](C)C(CC#Cc3ccc(C#CCC4O[C@H]5O[C@@]6(C)CC[C@H]7[C@H](C)CC[C@@H]([C@H]4C)[C@@]57OO6)cc3)O[C@H]3O[C@@]4(C)CC[C@@H]1[C@]32OO4 (stereo not given in full),IC50,Plasmodium falciparum [4],30 nM
C[C@@H]1CC[C@H]2[C@@H](C)C(CC(COS(=O)(=O)c3cccc4c(N(C)C)cccc34)CC3O[C@H]4O[C@@]5(C)CC[C@H]6[C@H](C)CC[C@@H]([C@H]3C)[C@@]46OO5)O[C@H]3O[C@@]4(C)CC[C@@H]1[C@]32OO4 (stereo not given in full),IC50,Plasmodium falciparum [1],3.9 nM
C[C@H]1[C@H](CCC(=O)c2ccc(C(=O)C[C@@H]3O[C@H]4O[C@@]5(C)CC[C@H]6[C@H](C)CC[C@@H]([C@H]3C)[C@@]46OO5)cc2)O[C@H]2O[C@@]3(C)CC[C@H]4[C@H](C)CC[C@@H]1[C@@]24OO3,IC50,Plasmodium falciparum [4],1.9 nM
C[C@@H]1CC[C@H]2[C@@H](C)C(OCCN/C(=N/c3cccc(F)c3)NCCOC3O[C@@H]4O[C@]5(C)CC[C@@H]6[C@@H](C)CC[C@H]([C@@H]3C)[C@]46OO5)O[C@H]3O[C@@]4(C)CC[C@@H]1[C@]32OO4 (stereo not given in full),IC50,MDA-MB-231,1330 nM
same,IC50,HT-29,90 nM
C[C@@H]1CC[C@H]2[C@@H](C)C(CC(O)(CO)CC3O[C@H]4O[C@@]5(C)CC[C@H]6[C@H](C)CC[C@@H]([C@H]3C)[C@@]46OO5)O[C@H]3O[C@@]4(C)CC[C@@H]1[C@]32OO4 (stereo not given in full),IC50,Plasmodium falciparum [1],0.59 nM
CCN(CC)CCCC(C)Nc1ccnc2cc(Cl)ccc12 (stereo not given) [CHLOROQUINE],CC50,[3],> 14900 nM
C=C(CC1O[C@H]2O[C@@]3(C)CC[C@H]4[C@H](C)CC[C@@H]([C@H]1C)[C@@]24OO3)CC1O[C@H]2O[C@@]3(C)CC[C@H]4[C@H](C)CC[C@@H]([C@H]1C)[C@@]24OO3 (stereo not given in full),IC50,Plasmodium falciparum [1],24 nM
same,IC50,Plasmodium falciparum [4],24 nM
